In patent publication US11564923B2, “Compounds and pharmaceutical compositions thereof for the treatment of inflammatory disorders” (Galapagos NV, priority 2017, dated 2023):
Where a name gives a salt, the structure may show the parent alone. Read-outs that look alike come from different tables or passages of the source.

How the values were obtained:
[1] = test system: IFNα activation of STAT1 in PBMC; assay: IFNα activation of STAT1 in PBMC; assay type: cell-based; settings: Homo sapiens
Outline: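 Human PBMC, with red cells lysed by NH4Cl, were pre-treated with compound for 30 min at 37 °C and 5% CO2. They were then stimulated for 30 min with recombinant human IFNα at 5 ng/mL final.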

[2] = test system: IL-12 activation of STAT4 in NK-92 cells; assay: IL-12 activation of STAT4 in NK-92 cells using AphaLISA SureFire technology; assay type: cell-based; settings: Homo sapiens
Outline: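 NK-92 cells, starved of rhIL-2 overnight, were stimulated with rhIL-12 for 30 min at 37 °C with test compounds, then lysed. Phospho-STAT4 (Tyr693) was read by AlphaLISA SureFire. Percent inhibition versus the vehicle-plus-trigger signal was fitted by sigmoidal nonlinear regression to give IC50, averaged over experiments.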

[3] = test system: IL-12 activation of STAT4 in NK-92 cells; assay: IL-12 activation of STAT4 in NK-92 cells using MSD as readout; assay type: cell-based; settings: Homo sapiens
Procedure: IL-2 is added freshly to the medium with each medium refreshment step. Cells are cultured in a humidified incubator at 37° C. 5% CO2.
NK-92 cells are pre-incubated with test compounds or vehicle for 30 min at 37° C. 5% CO2. […] NK-92 cells are triggered with rhIL-12 for 45 min at 37° C. 5% CO2.
After 45 min of cytokine stimulation the cells are lysed by addition of 50 μL ice-cold lysis buffer (supplemented with the MSD kit). Plates are frozen at −80° C. for minimal 1 hour to lyse the cells completely. After thawing the levels of phospho-STAT4 are quantified using the Phospho-STAT4 (Tyr693) kit (MSD, Catalogue number K150PAD-2) according to the manufacturer's instructions. Electroluminescent signal is measured on the MSD reader.
The percentage inhibition is calculated as: […]
RLU (trigger/veh): Relative lumescent signal determined in presence of vehicle and trigger
RLU (test compound): Relative luminescent signal determined in presence of test compounds)
PIN values are plotted for compounds tested in dose-response and IC50 values are derived using LIMS Software applying non-linear regression (sigmoidal) curve fitting. The data are expressed as the average IC50 from different experiments.

[4] = target: T1, Recombinant human TYK2 catalytic domain (amino acids 871-1187) (Homo sapiens, UniProt P29597); assay: TYK2 radioactive assay polyGT substrate; assay type: biochemical; note: 0.1 µM ATP
T1 construct: catalytic domain (amino acids 871-1187)
T1 sequence (P29597 871-1187): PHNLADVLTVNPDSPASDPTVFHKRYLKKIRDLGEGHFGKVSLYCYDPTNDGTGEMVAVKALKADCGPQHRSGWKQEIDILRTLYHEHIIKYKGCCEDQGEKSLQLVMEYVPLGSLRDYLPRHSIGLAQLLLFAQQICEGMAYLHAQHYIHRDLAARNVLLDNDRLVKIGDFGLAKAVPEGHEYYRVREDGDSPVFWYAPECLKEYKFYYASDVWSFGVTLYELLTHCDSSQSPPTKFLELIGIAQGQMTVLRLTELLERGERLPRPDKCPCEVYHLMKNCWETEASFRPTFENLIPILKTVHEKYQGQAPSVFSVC
Outline: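 Reaction at 30° C. for 120 min, ended with 150 mM phosphoric acid, washed, counted; percent inhibition scaled between vehicle and 10 μM staurosporine cpm.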

[5] = target: T2, Recombinant human JAK2 (catalytic domain, amino acids 808-1132) (Homo sapiens, UniProt O60674); assay: JAK2 inhibition assay; assay type: biochemical; settings: read-out: JAK2 potency IC50; note: 0.7 µM ATP
T2 construct: catalytic domain, amino acids 808-1132
T2 sequence (O60674 808-1132): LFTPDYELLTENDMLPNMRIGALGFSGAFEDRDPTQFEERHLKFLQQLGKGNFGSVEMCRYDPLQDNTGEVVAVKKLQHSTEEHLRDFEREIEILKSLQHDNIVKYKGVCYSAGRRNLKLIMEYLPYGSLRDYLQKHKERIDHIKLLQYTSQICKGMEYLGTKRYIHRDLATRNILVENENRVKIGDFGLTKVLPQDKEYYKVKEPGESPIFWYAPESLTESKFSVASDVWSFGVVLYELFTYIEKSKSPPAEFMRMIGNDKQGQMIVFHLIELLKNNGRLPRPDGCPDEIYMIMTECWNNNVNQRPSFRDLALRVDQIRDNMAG

[6] = target: T3, Recombinant human JAK1 (catalytic domain, amino acids 866-1154) (Homo sapiens, UniProt P23458); assay: JAK1 inhibition assay; assay type: biochemical; settings: read-out: JAK1 potency IC50
T3 construct: catalytic domain, amino acids 866-1154
T3 sequence (P23458 866-1154): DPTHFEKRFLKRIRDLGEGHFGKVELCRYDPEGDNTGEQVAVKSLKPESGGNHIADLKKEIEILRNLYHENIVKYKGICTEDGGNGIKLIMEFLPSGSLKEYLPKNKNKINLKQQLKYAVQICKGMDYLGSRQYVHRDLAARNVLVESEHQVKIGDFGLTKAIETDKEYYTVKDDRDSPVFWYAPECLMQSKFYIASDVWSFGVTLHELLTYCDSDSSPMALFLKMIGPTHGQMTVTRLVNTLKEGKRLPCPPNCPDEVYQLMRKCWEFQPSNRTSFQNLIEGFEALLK

[7] = target: Recombinant human JAK3 catalytic domain (amino acids 781-1124) (Homo sapiens, UniProt P52333); assay: JAK3 inhibition assay; assay type: biochemical
Sequence of Recombinant human JAK3 catalytic domain (amino acids 781-1124) (P52333 781-1124): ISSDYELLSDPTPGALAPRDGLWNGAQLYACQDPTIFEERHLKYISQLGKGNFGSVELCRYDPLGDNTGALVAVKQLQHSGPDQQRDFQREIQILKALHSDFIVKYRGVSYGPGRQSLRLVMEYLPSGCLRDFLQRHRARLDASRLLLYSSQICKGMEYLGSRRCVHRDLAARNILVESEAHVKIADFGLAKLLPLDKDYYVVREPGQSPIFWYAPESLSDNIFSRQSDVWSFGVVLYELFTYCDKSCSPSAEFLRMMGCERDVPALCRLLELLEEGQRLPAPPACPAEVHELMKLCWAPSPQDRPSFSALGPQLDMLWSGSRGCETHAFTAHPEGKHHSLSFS
Outline: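 Radiometric kinase reaction run 45 min at 30° C., stopped with phosphoric acid; activity as vehicle cpm minus 10 μM staurosporine cpm.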

[8] = IFNα activation of STAT1 in PBMC, average IC50, read-out: IFNα signaling inhibitory potency IC50
[9] = NK92, IL-12 activation of STAT4 in NK-92 cells, AlphaLISA SureFire, average IC50, read-out: IL12 pSTAT4 IC50
[10] = NK92, NK-92 cells, rhIL-12 25 ng/mL, MSD readout, read-out: IL12 pSTAT4 IC50

| Structure (SMILES) | IC50 [2, 9] [nM] | IC50 [3, 10] [nM] | IC50 [4] [nM] | IC50 [5] [nM] | IC50 [6] [nM] | IC50 [7] [nM] | IC50 [1, 8] [nM] | IC50 ([1]; PBMC, read-out: IFNα signaling inhibitory potency IC50 (nM)) [nM] | IC50 ([2]; NK92, read-out: IL12 pSTAT4 IC50 (nM)) [nM] | IC50 ([3]; NK92, read-out: IL12 pSTAT4 IC50) [nM] |
| --- | --- | --- | --- | --- | --- | --- | --- | --- | --- | --- |
| Cc1cc(C#N)ncc1Oc1cc(Nc2ccc(C(=O)N(C)C)nn2)c2ncn(C)c2n1 [Compound 73, 6-[[5-[(6-cyano-4-methyl-3-pyridyl)oxy]-3-methyl-imidazo[4,5-b]pyridin-7-yl]amino]-N,N-dimethyl-pyridazine-3-carboxamide] | 158 | 199 | 3.44 |  |  |  | 81 |  |  |  |
| CCNC(=O)c1ccc(Nc2cc(Oc3cnc(C#N)cc3C)nc3c2ncn3C)cn1 [Compound 26, 5-[5-(6-Cyano-4-methyl-pyridin-3-yloxy)-3-methyl-3H-imidazo[4,5-b]pyridin-7-ylamino]-pyridine-2-carboxylic acid ethylamide] |  | 1530 | 74 | 873 | 338 |  |  |  |  |  |
| Cc1cc(C#N)ncc1Oc1cc(Nc2ccc(C(F)(F)F)cn2)c2ncn(C)c2n1 [Compound 59, 4-methyl-5-[3-methyl-7-[[5-(trifluoromethyl)-2-pyridyl]amino]imidazo[4,5-b]pyridin-5-yl]oxy-pyridine-2-carbonitrile] |  | 4720 | 69.2 | 133 | 461 | 3780 | 407 |  |  |  |
| Cc1cc(C#N)ncc1Oc1cc(Nc2ccc(S(C)(=O)=O)cc2)c2ncn(C)c2n1 [Compound 60, 4-methyl-5-[3-methyl-7-(4-methylsulfonylanilino)imidazo[4,5-b]pyridin-5-yl]oxy-pyridine-2-carbonitrile] |  | 1150 | 9.72 |  |  |  | 73 |  |  |  |
| CN(c1cc(Nc2cc(N)ncn2)c2ncn(C)c2n1)C12CC(C1)C2 [Compound 18, N7-(6-Amino-pyrimidin-4-yl)-N5-bicyclo[1.1.1]pent-1-yl-3,N5-dimethyl-3H-imidazo[4,5-b]pyridine-5,7-diamine] |  | 4680 | 30.5 | 31.5 | 294 | 187 |  |  |  |  |
| CCNC(=O)c1ccc(Nc2cc(NC(C3CC3)C(F)(F)F)nc3c2ncn3C)cn1 (centres unmarked) [Compound 91, 5-[[5-[(1-cyclopropyl-2,2,2-trifluoro-ethyl)amino]-3-methyl-imidazo[4,5-b]pyridin-7-yl]amino]-N-ethyl-pyridine-2-carboxamide] |  | 3150 | 24.1 | 42 | 157 | 208 |  |  |  |  |
| Cc1cc(C#N)ncc1Oc1cc(Nc2ccc(C(=O)NCC(C)O)nn2)c2ncn(C)c2n1 (centres unmarked) [Compound 25, 6-[5-(6-Cyano-4-methyl-pyridin-3-yloxy)-3-methyl-3H-imidazo[4,5-b]pyridin-7-ylamino]-pyridazine-3-carboxylic acid (2-hydroxy-propyl)-amide] |  | 1120 | 19.2 | 78.3 | 243 | 2300 | 198 |  |  |  |
| Cc1cc(C#N)ncc1Oc1cc(Nc2ccc(S(C)(=O)=O)cn2)c2ncn(C)c2n1 [Compound 58, 4-methyl-5-[3-methyl-7-[(5-methylsulfonyl-2-pyridyl)amino]imidazo[4,5-b]pyridin-5-yl]oxy-pyridine-2-carbonitrile] |  | 595 | 7.42 | 35.5 | 97.8 | 1100 | 88 |  |  |  |
| Cc1cc(S(C)(=O)=O)cc(F)c1Oc1cc(Nc2cc(N)ncn2)c2ncn(C)c2n1 [Compound 2, N-[5-(2-Fluoro-4-methanesulfonyl-6-methyl-phenoxy)-3-methyl-3H-imidazo[4,5-b]pyridin-7-yl]-pyrimidine-4,6-diamine] |  |  |  |  |  |  |  | 87 | 73.5 | 259 |
| CC(Oc1cc(Nc2cc(N)ncn2)c2ncn(C)c2n1)C1CC1 (centres unmarked) [Compound 72, N4-[5-(1-cyclopropylethoxy)-3-methyl-imidazo[4,5-b]pyridin-7-yl]pyrimidine-4,6-diamine] | 57.2 | 27.7 | 1.41 |  |  |  | 124 |  |  |  |

Second part, led by results:

| IC50 [2, 9] [nM] | IC50 [3, 10] [nM] | IC50 [4] [nM] | IC50 [5] [nM] | IC50 [6] [nM] | IC50 [7] [nM] | Structure (SMILES) | IC50 [1, 8] [nM] | IC50 ([1]; PBMC, read-out: IFNα signaling inhibitory potency IC50 (nM)) [nM] | IC50 ([2]; NK92, read-out: IL12 pSTAT4 IC50 (nM)) [nM] | IC50 ([3]; NK92, read-out: IL12 pSTAT4 IC50) [nM] |
| --- | --- | --- | --- | --- | --- | --- | --- | --- | --- | --- |
|  | 1500 | 3.83 | 17 | 91.4 | 279 | CN(c1cc(Nc2cc(N)ncn2)c2ncn(C)c2n1)c1c(F)cc(C#N)cc1C1CC1 [Compound 14, 4-{[7-(6-Amino-pyrimidin-4-ylamino)-3-methyl-3H-imidazo[4,5-b]pyridin-5-yl]-methyl-amino}-3-cyclopropyl-5-fluoro-benzonitrile] |  |  |  |  |
|  | 540 | 1.42 | 3.04 | 26.9 | 36.7 | C[C@H](N(C)c1cc(Nc2cc(N)ncn2)c2ncn(C)c2n1)C(C)(C)C [Compound 12, N7-(6-aminopyrimidin-4-yl)-N5,3-dimethyl-N5-[(1S)-1,2,2-trimethylpropyl]imidazo[4,5-b]pyridine-5,7-diamine] | 25 |  |  |  |
|  | 3370 | 9.01 |  |  |  | Cc1cc(C#N)ncc1Oc1cc(Nc2ccc(C(=O)NCC(C)O)cn2)c2ncn(C)c2n1 (centres unmarked) [Compound 24, 6-[5-(6-Cyano-4-methyl-pyridin-3-yloxy)-3-methyl-3H-imidazo[4,5-b]pyridin-7-ylamino]-N-(2-hydroxy-propyl)-nicotinamide] | 151 |  |  |  |
| 205 | 1650 | 11.7 |  |  |  | Cc1cc(C#N)ncc1Nc1cc(Nc2ccc(C(=O)N(C)C)cc2)c2ncn(C)c2n1 [Compound 66, 4-[[5-[(6-cyano-4-methyl-3-pyridyl)amino]-3-methyl-imidazo[4,5-b]pyridin-7-yl]amino]-N,N-dimethyl-benzamide] | 138 |  |  |  |
|  | 1140 | 7.58 | 70 | 102 | 584 | Cc1cc(C#N)ncc1Oc1cc(Nc2ccc(S(=O)(=O)N3CCOCC3)cc2)c2ncn(C)c2n1 [Compound 63] | 128 |  |  |  |
|  | 409 | 9.22 | 72.7 | 68 | 495 | CCNS(=O)(=O)c1ccc(Nc2cc(Oc3cnc(C#N)cc3C)nc3c2ncn3C)cc1 [Compound 53, 4-[[5-[(6-cyano-4-methyl-3-pyridyl)oxy]-3-methyl-imidazo[4,5-b]pyridin-7-yl]amino]-N-ethyl-benzenesulfonamide] | 119 |  |  |  |
|  | 377 | 1.81 | 4.75 | 27.2 | 143 | CN(c1cc(Nc2cc(N)ncn2)c2ncn(C)c2n1)C1CCOCC1(C)C (centres unmarked) [Compound 11, N7-(6-Amino-pyrimidin-4-yl)-N5-(3,3-dimethyl-tetrahydro-pyran-4-yl)-3,N5-dimethyl-3H-imidazo[4,5-b]pyridine-5,7-diamine] |  |  |  |  |
|  | 905 | 10.2 | 14.6 | 64.6 | 237 | C[C@H]1COCC[C@@H]1N(C)c1cc(Nc2cc(N)ncn2)c2ncn(C)c2n1 [Compound 17, N7-(6-Amino-pyrimidin-4-yl)-3,N5-dimethyl-N5-((3R,4S)-3-methyl-tetrahydro-pyran-4-yl)-3H-imidazo[4,5-b]pyridine-5,7-diamine] |  |  |  |  |
|  | 7460 | 45.4 |  |  |  | Cc1cc(C#N)ncc1Oc1cc(Nc2ccc(CN)cc2)c2ncn(C)c2n1 [Compound 57, 5-[7-[4-(aminomethyl)anilino]-3-methyl-imidazo[4,5-b]pyridin-5-yl]oxy-4-methyl-pyridine-2-carbonitrile formate salt] | 405 |  |  |  |
